This is an account of results in patent publication US8349553B2, “Jasmonate based assays for identifying compounds that selectively inhibit mitochondrial bound hexokinases” (Ramot at Tel Aviv University Ltd., priority 2007, dated 2013).

The test system of data set [1] is mitochondria-bound hexokinase (mitochondrial fraction of B16 melanoma tumors). Nature of the data set: Hexokinase detachment assay, mitochondrial fraction of B16 melanoma tumors. Format: biochemical, murine. To be noted: B16 tumor mitochondrial fraction; 30 minutes at 37° C. Here is the method:
Mitochondrial fraction was prepared by mechanical lysis and differential centrifugation. All stages were performed on ice. Cells or extracted tissues were washed with PBS and disrupted by homogenization in extraction buffer (Sucrose 250 mM, HEPES-NaOH 10 mM, pH 7.2) freshly supplemented with 0.1 mM EDTA and Protease Inhibitors cocktail (Sigma). For each gram of cells or tissue, 4 volumes of extraction buffer were applied. The homogenate volume was doubled with the extraction buffer, and tissue and cell debris as well as nuclei were pelleted by centrifugation of 1,000 g for 10 minutes. The supernatant was further spun at 13,000 g for 10 minutes twice. Endoplasmic reticulum layer was removed. The pellet, designated as the mitochondrial fraction, was suspended in the appropriate buffer, depending on the assay for which the mitochondrial fraction was prepared. Mitochondrial fractions were used immediately or stored at −196° C. […] Activity of hexokinase in the supernatant (i.e., activity of the detached hexokinase) was determined spectrophotometrically at 340 nm. […] Mitochondrial fractions isolated from different cancer cells, namely Molt-4 cells, BCL-1 leukemic cells and B16 melanoma tumors were incubated for 30 minutes at 37° C., and the activity of unbound hexokinase was measured and compared to the activity of spontaneously (control) detached hexokinase. […]

The test system of data set [2] is HKI and HKII (mitochondrial fraction of BCL-1). Nature of the data set: Western blot of supernatants with anti-HKI and anti-HKII, BCL-1 mitochondrial fraction. Format: biochemical, murine. To be noted: BCL-1 mitochondrial fraction supernatant. On the procedure: For analysis of hexokinase levels, the experiments were performed similarly to hexokinase detachment assay described above, and unbound hexokinase in the supernatant fraction was extracted as described in Fingrut (2005). Samples were separated by sodium dodecylsulfate-polyacrylamide gel (7%) electrophoresis followed by immunoblotting. The blots were probed with specific anti-HKI or anti-HKII antibodies (1:300, Santa-Cruz Biotechnology, CA, USA). Hexokinase-antibody complexes were stained with HRP-conjugated antibody (1:10,000, Santa-Cruz Biotechnology, CA, USA). Enhanced chemiluminescence (ECL) reagent (Biological Industries, Beit Haemek, Israel) was added, and the blots were exposed to ECL film (Eastman Kodak, Rochester, N.Y., USA). Hexokinase detachment from mitochondrial fraction is not limited to CT-26 colon carcinoma. Mitochondrial fractions isolated from different cancer cells, namely Molt-4 cells, BCL-1 leukemic cells and B16 melanoma tumors were incubated for 30 minutes at 37° C., and the activity of unbound hexokinase was measured and compared to the activity of spontaneously (control) detached hexokinase. […] The supernatant of the experiments were separated on SDS-PAGE and probed with anti-HKI and anti-HKII antibodies.
For orientation: A western blot detects proteins with antibodies after separation by electrophoresis.

The next data set has as its system B16 melanoma. Nature of the data set: Cellular ATP levels (CellTiter-Glo), B16. The class given is cell-based, murine. To be noted: 60 minutes of exposure, various concentrations. Here is the method: (§1) The CellTiter-Glo™ Luminescent Cell Viability Assay (Promega, Madison, Wis., U.S.A.) was employed (Fingrut, 2005). Upon completion of a given experiment, plates were equilibrated to room temperature. CellTiter-Glo™ reagent containing luciferin and luciferase was added to each well and the plates were mixed on an orbital shaker for 2 minutes to induce cell lysis. In the presence of ATP, Mg^2+ and molecular oxygen, mono-oxidation of luciferin is catalyzed by luciferase, generating a luminescence signal. Cells were then incubated for 10 minutes at room temperature to stabilize the luminescence signal. Luminescence was recorded using Kodak digital science—Image station 440 CD. Luminescence is directly proportional to ATP concentration. ATP depletion (% of control) was calculated in the following way: {(luminescence of control cells−luminescence of drug-treated cells)/luminescence of control cells}×100. In order to test the correlation between cellular ATP levels and the release of hexokinase from mitochondrial fraction different cancer cells, namely Molt-4 cells, BCL-1 leukemic cells and B16 melanoma tumors were exposed to various methyl jasmonate concentrations. […] CT26 and Molt-4 cells were then seeded in 24 well plates. CT26 cells were allowed to adhere over night. Cells were exposed to methyl jasmonate (MJ; 3 mM) for 1 hour. Trypan blue exclusion test was performed and cells were counted.
In general terms: ATP-based viability assays read luminescence as a measure of living cells.

The next data set relates to CT26 cells. Nature of the data set: Cellular ATP levels (CellTiter-Glo), CT26. Format: cell-based, murine. To be noted: 60 minutes of exposure, indicated concentrations (FIG. 4A). On the procedure:
as §1

A short description of data set [3]: Solubility in SPR running buffer. Format: physicochemical. To be noted: PBS X 1 with 0.005% Tween and 5% DMSO. On the procedure: SPR using ProteOn-EP5 (Bio-Rad, Hercules, Calif., USA) system has been applied to study the direct interaction of methyl jasmonate with hexokinase. This system allowed measuring ligand-analyte interactions in a 6×6 format in real time. Purified rat brain HKI and rabbit immunoglobulin G (Rb IgG; ligands) were diluted in 10 mM Na acetate pH 4 and 4.5, respectively, and coupled to a GLM sensor surface activated with 37.5 mg/ml N-Ethyl-N′-(3′ dimethylaminopropyl) carbodiimide hydrochloride and 7.5 mg/ml N-hydroxysuccinimide. HKI and IgG were added to saturate the chip at 100 μg/ml. Remaining reactive groups on the chip were then inactivated with 1 M ethanolamine pH 8.5. […] Methyl jasmonate and jasmonic acid (analytes) were diluted in running buffer (PBS X 1 with 0.005% Tween and 5% DMSO) and injected onto the sensor chip at varying concentrations. All experiments were performed at flow rate of 50 μl/min, at 25° C.

`CC/C=C\CC1C(=O)CCC1CC(=O)OC` (centres unmarked) [methyl jasmonate]: the “detachment of hexokinase (activity of unbound hexokinase compared to control)” value in data set [1] is listed as “detached hexokinase from mitochondrial fraction isolated from the three different cancer cells”. In data set [2], the “detachment of hexokinase confirmed by immunoblot (anti-HKI, anti-HKII)” value is “detachment of hexokinase from mitochondrial fraction of the various cancer cells was further confirmed”. In addition, the “cellular ATP level” value with B16 melanoma was “significant and dose-dependent decrease of cellular ATP”; in the data set on CT26 cells, “depletes cellular ATP”. Moreover, the “solubility in the running buffer” value in data set [3] was “limited solubility”.
